Reference: US7902156B2 (Angiochem Inc., priority 2005, dated 2011)
Values belong to the substance of their own block, whether it stands above or below them. No end group written: not given here.

Key:
mouse brain = experiment: In situ cerebral perfusion with post-perfusion capillary depletion; format: in vivo, mice; conditions: perfusion 5 min; for Volume of distribution, Capillaries % / Volume of distribution, Parenchyma %: share of homogenate; for Volume of distribution, Homogenate: total brain
From the text: The in situ cerebral perfusion (in mice) was used as the fourth level of selection to select the best peptides. This procedure also distinguishes between compounds remaining in the brain vascular compartment from those having crossed the abluminal endothelial membrane to enter the brain parenchyma. Indeed, the technique of post-perfusion capillary depletion allows to measure whether the molecule really crosses the endothelium to enter the brain parenchyma.

[1] = test system: in vitro model of the BBB (co-culture of bovine brain capillary endothelial cells and rat glial cells); experiment: First level screening: peptide passage in the in vitro BBB model, Coomassie blue detection; conditions: 90 minutes at 37° C.
[2] = test system: in vitro BBB model (BBCEC monolayers grown on filters in the presence of astrocytes); experiment: Permeability coefficient (Pe) / transcytosis capacity in the in vitro BBB model; format: in vitro ADME, bovine; conditions: third level of selection, peptide at 250 nM
Method: At different times, inserts were placed into another well.
Transcytosis capacity of Aprotinin-Paclitaxel conjugate was determined and is reported below in Table 5.

Volume of distribution, Capillaries (mouse brain): 76 ml/100 g
Volume of distribution, Parenchyma (mouse brain): 11 ml/100 g
Volume of distribution, Capillaries % (mouse brain): 88%
Volume of distribution, Parenchyma % (mouse brain): 12%
Volume of distribution, Homogenate (mouse brain): 87 ml/100 g
Permeability coefficient (Pe) [2]: highest Pe
Substance: RFKYGGCLGNKNNFLRLKY [Peptide 90, R F K Y G G C L G N K N N F L R L K Y]
Peptide detected in the lower side of the chambers by Coomassie blue staining [1]: detected in the lower side of the chambers

Volume of distribution, Capillaries (mouse brain): 181 ml/100 g
Volume of distribution, Parenchyma (mouse brain): 16 ml/100 g
Volume of distribution, Capillaries % (mouse brain): 90%
Volume of distribution, Parenchyma % (mouse brain): 10%
Volume of distribution, Homogenate (mouse brain): 198 ml/100 g
Permeability coefficient (Pe) [2]: highest Pe
Substance: TFFYGGCRGKRNNFKTKRY [Peptide 78, T F F Y G G C R G K R N N F K T K R Y]
Peptide detected in the lower side of the chambers by Coomassie blue staining [1]: detected in the lower side of the chambers

Volume of distribution, Capillaries (mouse brain): 52 ml/100 g
Volume of distribution, Parenchyma (mouse brain): 18 ml/100 g
Volume of distribution, Capillaries % (mouse brain): 74%
Volume of distribution, Parenchyma % (mouse brain): 26%
Volume of distribution, Homogenate (mouse brain): 70 ml/100 g
Permeability coefficient (Pe) [2]: highest Pe
Substance: TFFYGGKRGKRNNFKTAEY [Peptide 79, T F F Y G G K R G K R N N F K T A E Y]
Peptide detected in the lower side of the chambers by Coomassie blue staining [1]: detected in the lower side of the chambers

More lines, now with the values behind:

Substance: TFFYGGCRGKKNNFKRAKY [Peptide 8, T F F Y G G C R G K K N N F K R A K Y]
Volume of distribution, Capillaries (mouse brain): 204 ml/100 g
Volume of distribution, Parenchyma (mouse brain): 46 ml/100 g
Volume of distribution, Capillaries % (mouse brain): 82%
Volume of distribution, Parenchyma % (mouse brain): 18%
Volume of distribution, Homogenate (mouse brain): 250 ml/100 g
Peptide detected in the lower side of the chambers by Coomassie blue staining [1]: detected in the lower side of the chambers
Permeability coefficient (Pe) [2]: highest Pe

Substance: TFFYGGCRGKRNNFKTEEY-NH2 [Peptide 67, T F F Y G G C R G K R N N F K T E E Y]
Volume of distribution, Capillaries (mouse brain): 13 ml/100 g
Volume of distribution, Capillaries % (mouse brain): 34%
Volume of distribution, Homogenate (mouse brain): 38 ml/100 g
Peptide detected in the lower side of the chambers by Coomassie blue staining [1]: detected in the lower side of the chambers
Permeability coefficient (Pe) [2]: highest Pe
